Publication PMC4569415, “Pro-Oxidant Activity of Amine-Pyridine-Based Iron Complexes Efficiently Kills Cancer and Cancer Stem-Like Cells” (PLoS ONE, 2015)
Like-named read-outs stand apart in the source and are kept apart here.

Assays:
[1] = system: MCF-7 cells; test: Cellular DNA damage, p-H2A.X flow cytometry; assay type: cell-based, human; conditions: MCF-7, 10 μmol/L, time-dependent
Procedure: DNA damage was assessed by monitoring the intensity of p-H2A.X fluorescence using flow cytometry. Briefly, cells were collected with trypsin, washed in PBS and fixed in 3.7% formaldehyde for 15 min on ice. Cells were then permeabilised with 0.2% v/v Triton-X100 for 10 min and incubated with 1:400 rabbit anti-p-(S139)-H2A.X antibody (Cell Signaling Technology, Danvers, MA) for 30 min on ice. After washing in 0.1% Triton-X100 in PBS, cells were incubated with 1:400 anti-rabbit Alexa 555-conjugated antibody (Jackson ImmunoResearch, Newmarket, UK) for 20 min on ice. Analysis was carried out in a FACScan flow cytometer with Flowing software.

[2] = system: CAPAN-1 cells; test: MTT cytotoxicity assay; assay type: cell-based, human; conditions: for viability at 10 µM / IC50 / viability at 5 µM: Homo sapiens; for viability at 10 µM: CAPAN-1, compound 10 μmol/L; for viability at 10 µM / viability at 5 µM: read-out: CAPAN-1 cell viability; for IC50: CAPAN-1, MTT, 48 h of compound exposure; for viability at 5 µM: CAPAN-1, compound 5 μmol/L
Procedure: (§1) The cytotoxic activity of the compounds was determined by MTT reduction assay as described. Compounds were diluted in Milli-Q water to obtain 1 mmol/L stock solutions. Appropriate aliquots of these solutions were diluted in the corresponding cell culture medium to obtain the final working concentrations. Aliquots of 5000 1BR3G cells, 6000 MCF-7, 6000 PC-3 cells, 10 000 CAPAN-1 cells, 4000 MCF 10A cells, 4000 HMLE cells or 4000 CCD-18Co cells were seeded in 96-well plates, 24 h prior to the treatments. Hematological cell lines were seeded at 400 000 cells/mL. Cells were treated with the corresponding compound at concentrations ranging from 0 to 100 μmol/L for 48 h. Three replicates for each compound were used. The IC50 was established for each compound by standard non-linear regression and curve fitting using GraphPad Prism (Graph Pad software Inc., La Jolla, CA, USA).

[3] = system: MCF-7 cells; test: MTT cytotoxicity assay; assay type: cell-based, human; conditions: for IC50: Homo sapiens, MCF7, MTT, 48 h of compound exposure
Procedure: as §1

[4] = system: CS-like HMLER-shEcad cells; test: MTT cytotoxicity assay in cancer stem-like cells; assay type: cell-based, human; conditions: Homo sapiens, 48 h
Procedure: as §1
(§2) Fig 2 Cell viability assay. (A) Cytotoxic activity of compounds 1, 2, and 5 against cancer cells. The indicated cell lines were treated for 48 h with ligands (10 μmol/L) and cell viability was measured with the MTT assay. Data represents the percentage of viable cells relative to untreated cells (control). (B) Cytotoxicity of doxorubicin and compounds 1, 2 and 5 against CS-like cells. CS-like HMLER-shEcad cells and non-CS-like HMLER isogenic parental cells were treated for 48 h with graded concentrations of doxorubicin, 1, 2 and 5. Cell viability was measured with the MTT assay. For each treatment, the percentage of viable cells relative to untreated cells is indicated. Data represents the mean±SD of 3 independent experiments performed in triplicate.

[5] = Hemolytic assay; assay type: cell-based; conditions: human, erythrocyte suspension of fresh human blood (5% vol/vol)
Procedure: The hemolytic activity of the compounds at 100 μmol/L was evaluated by determining hemoglobin release from erythrocyte suspensions of fresh human blood (5% vol/vol) as described.

[6] = system: PC-3; test: MTT cytotoxicity assay; assay type: cell-based; conditions: Homo sapiens, 48 h of treatment
Procedure: as §1

[7] = system: JURKAT; test: MTT cytotoxicity assay; assay type: cell-based; conditions: Homo sapiens, 48 h of treatment
Procedure: as §1

[8] = system: CCD-18Co; test: MTT cytotoxicity assay; assay type: cell-based; conditions: Homo sapiens, 48 h of treatment, non malignant cells
Procedure: as §1

[9] = system: HMLE; test: MTT cytotoxicity assay; assay type: cell-based; conditions: Homo sapiens, 48 h of treatment, non malignant cells
Procedure: as §1

[10] = system: 1BR3G; test: MTT cytotoxicity assay; assay type: cell-based; conditions: Homo sapiens, 48 h of treatment, non malignant cells
Procedure: as §1

[11] = system: MCF-10A; test: MTT cytotoxicity assay; assay type: cell-based; conditions: Homo sapiens, 48 h of treatment, non malignant cells
Procedure: as §1

[12] = system: Z-138; test: MTT cytotoxicity assay; assay type: cell-based; conditions: Homo sapiens, 48 h of treatment
Procedure: as §1

[13] = system: MCF-7 cells; test: Cellular labile iron pool with calcein-AM; assay type: cell-based, human; conditions: MCF-7, pre-incubation with ligands
[14] = system: tumor (PC-3, Z-138 and JURKAT) cell lines; test: MTT cytotoxicity assay, tumor cell selection; assay type: cell-based; conditions: Homo sapiens, range over PC-3, Z-138 and JURKAT, 48 h, read-out: IC50 values against tumor cells (range)
Procedure: as §1

[15] = system: HMLER cells; test: MTT cytotoxicity assay in non-CS-like parental cells; assay type: cell-based; conditions: Homo sapiens, 48 h
Procedure: as §1, §2

[16] = system: CAPAN-1 cells; test: Cellular labile iron pool with calcein-AM; assay type: cell-based, human; conditions: CAPAN-1, 10 μmol/L, 24 h
Procedure: The cellular labile iron pool was determined with calcein-AM. CAPAN-1 cells (125 000 cells/ well) were seeded in 24-well plates and incubated for 24 h. Then, cells were treated for 24 h with 10 μmol/L of compound 1, 2 or 5 at 37°C. In some experiments, cells were incubated for 2 h with 100 μmol/L of DFO or 100 μmol/L FeCl2. Cells exposed to the vehicle alone were used as a control. After treatments, cells were washed with PBS and incubated with calcein-AM (0.25 μmol/L) for 30 min at 37°C in the dark. Subsequently, cells were washed and collected with trypsin and the geometric mean fluorescence intensity of 10 000 cells was determined by flow cytometry as described.

[17] = compound 10 μmol/L, FeCl2 100 μmol/L pre-incubation
[18] = compound 5 μmol/L, pretreated with 100 μmol/L FeCl2 for 2 h

c1ccc(CN2CCC[C@H]2[C@@H]2CCCN2Cc2ccccn2)nc1 [Compound 1]
increase in phosphorylated H2A.X [1]: three fold | viability at 10 µM ([2]; presence of NAC): 45.2 ± 5.4% | viability at 10 µM ([2]; without NAC): 40.7 ± 6.9% | IC50 [2]: 9.9 ± 1.01 µM | enhancement of cytotoxicity by FeCl2 pretreatment, CAPAN-1 [2, 17]: 25.5% | IC50 [3]: 7.4 ± 0.2 µM | enhancement of cytotoxicity by FeCl2 pretreatment, MCF-7 [3, 17]: 58.6% | IC50 [4]: 5.3 ± 0.7 µM | hemolysis at 100 µM [5]: 0% | IC50 [6]: 8.5 ± 1.4 µM | IC50 [7]: 15.1 ± 3.1 µM | IC50 [8]: 27 ± 4.4 µM | IC50 [9]: 6.4 ± 4 µM | IC50 [10]: 12.7 ± 1.6 µM | IC50 [11]: 18.8 ± 2.9 µM | IC50 [12]: 4.8 ± 1.2 µM | calcein fluorescence compared with untreated cells [13]: 131.4±13.2% | IC50 [14]: 4.8 to 15.1 µM | IC50 [15]: 6.5 ± 0.4 µM | calcein fluorescence intensity, % of untreated cells [16]: 141.4±19.5%

CN(C)c1ccnc(CN2CCC[C@H]2[C@@H]2CCCN2Cc2cc(N(C)C)ccn2)c1 [Compound 2]
increase in phosphorylated H2A.X [1]: three fold | viability at 5 µM ([2]; absence of NAC): 23.9 ± 2.9% | viability at 5 µM ([2]; presence of 5 mmol/L NAC): 33.6 ± 3.8% | IC50 [2]: 6 ± 0.7 µM | increase in cell survival by NAC ([2]; compound 5 μmol/L, 5 mmol/L NAC): 40.6% | reduction in CAPAN-1 cell viability in FeCl2-pretreated cells [2, 18]: 37.7% | IC50 [3]: 3.7 ± 0.4 µM | reduction in MCF-7 cell viability in FeCl2-pretreated cells [3, 18]: 51.8% | IC50 [4]: 6.8 ± 0.1 µM | hemolysis at 100 µM [5]: 0% | IC50 [6]: 3.8 ± 0.2 µM | IC50 [7]: 7.2 ± 1.9 µM | IC50 [8]: 20.7 ± 0.3 µM | IC50 [9]: 7 ± 0.3 µM | IC50 [10]: 7.5 ± 0.5 µM | IC50 [11]: 6.5 ± 1.3 µM | IC50 [12]: 4.4 ± 0.3 µM | calcein fluorescence compared with untreated cells [13]: 133.8±10.02% | IC50 [14]: 3.8 to 7.2 µM | IC50 [15]: 6.6 ± 0.3 µM | calcein fluorescence intensity, % of untreated cells [16]: 136.8±11.7%

CN1CCN(Cc2ccccn2)CCN(Cc2ccccn2)CC1 [Compound 5]
increase in phosphorylated H2A.X [1]: four fold | effect of NAC on cytotoxicity ([2]; CAPAN-1, NAC 5 mmol/L): no protective effect of NAC | IC50 [2]: 7.9 ± 0.5 µM | IC50 [3]: 7.7 ± 0.3 µM | IC50 [4]: 8.6 ± 0.5 µM | hemolysis at 100 µM [5]: 0% | IC50 [6]: 7.7 ± 0.3 µM | IC50 [7]: 5.4 ± 1.3 µM | IC50 [8]: 53.5 ± 3.5 µM | IC50 [9]: 6.1 ± 0.1 µM | IC50 [10]: 18 ± 4.2 µM | IC50 [11]: 23.8 ± 1.3 µM | IC50 [12]: 2.9 ± 0.4 µM | calcein fluorescence compared with untreated cells [13]: only a moderate iron-chelating effect | IC50 [14]: 2.9 to 7.7 µM | IC50 [15]: 5.1 ± 0.1 µM | calcein fluorescence intensity, % of untreated cells [16]: 144.6±13.8%
